# Measured values taken from PubChem BioAssay (NCI).
#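 The compound was tested at five concentrations on cells cultured in 96-well plates, with a 48-hour exposure period. At the GI50, growth is halved. TGI denotes the concentration required for complete inhibition of growth.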
# Key:
# Assay in all cases: growth of human tumour cells (NCI), 48 h
# SK-MEL-2 melanoma = tested on: SK-MEL-2 melanoma
# HCT-15 colon = tested on: HCT-15 colon
# U251 CNS = tested on: U251 CNS
# SR leukemia = tested on: SR leukemia
# OVCAR-4 ovarian = tested on: OVCAR-4 ovarian
# SF-268 CNS = tested on: SF-268 CNS
# SF-295 CNS = tested on: SF-295 CNS
# HL-60(TB) leukemia = tested on: HL-60(TB) leukemia
# RPMI-8226 leukemia = tested on: RPMI-8226 leukemia
# MDA-MB-435 = tested on: MDA-MB-435
SMILES,GI50 (SK-MEL-2 melanoma) [µM],TGI (SK-MEL-2 melanoma) [µM],GI50 (HCT-15 colon) [µM],TGI (HCT-15 colon) [µM],GI50 (U251 CNS) [µM],TGI (U251 CNS) [µM],GI50 (SR leukemia) [µM],TGI (SR leukemia) [µM],GI50 (OVCAR-4 ovarian) [µM],TGI (OVCAR-4 ovarian) [µM],GI50 (SF-268 CNS) [µM],TGI (SF-268 CNS) [µM],GI50 (SF-295 CNS) [µM],TGI (SF-295 CNS) [µM],GI50 (HL-60(TB) leukemia) [µM],TGI (HL-60(TB) leukemia) [µM],GI50 (RPMI-8226 leukemia) [µM],TGI (RPMI-8226 leukemia) [µM],GI50 (MDA-MB-435) [µM],TGI (MDA-MB-435) [µM]
NS(=O)(=O)OC[C@H]1C[C@@H](Nc2ccnc3cc(-c4cccc(SC(F)(F)F)c4)nn23)[C@H](O)[C@@H]1O,0.0316,0.118,0.139,0.449,0.016,0.0339,0.0316,1.05,0.0274,0.11,0.0265,0.0711,0.086,0.237,0.0332,0.15,0.641,3,0.035,0.144
CN(Cc1ccccc1)Cn1ccnc1,,> 100,,> 100,,> 100,,> 66.8,,> 100,,> 100,,> 100,,> 100,,> 78.1,,> 100
O=c1c2ccccc2sc2c(NCCCNCCO)nc3ccccc3c12,1.87,3.62,1.57,3.52,1.76,3.57,1.6,4.55,2.17,6.37,1.69,4.24,1.83,4.11,1.92,3.92,1.92,4.89,1.77,3.25
Cc1cc2nc(NCCN)n(Cc3ccc(F)c(Cl)c3)c2cc1C,19.1,34,5.74,19.1,12.3,25.1,2.03,6.04,14,28.3,11.6,26,12.8,26.1,2.83,11.7,3.95,15.1,3.68,14
Cc1c(-c2cnccn2)ssc1=S,,> 100,,> 100,,> 100,,> 100,,> 100,,99,,> 95.1,,> 77.4,,> 100,,> 100
COc1cc2c(cc1OC(C)C)[C@H](c1ccc(Cl)cc1)N(c1ccc(N(C)CC3CCC(N4CCN(C)C(=O)C4)CC3)cc1)C(=O)C2 (stereo not given in full),5.87,12.1,1.95,5.79,3.34,8.44,0.123,1.97,2.99,9.85,3.01,8.72,2.16,5.46,2.19,5.87,2.13,4.76,2.47,6.93
COc1ccc(Nc2nc3cc(N)cc(N)c3nc2-c2ccccc2)cc1,15.6,31.4,15.3,45,16.3,29.8,19.2,> 100,10.4,22.1,13,30.6,31.9,> 100,34.4,> 100,19.1,> 100,16.5,30.1
Cc1onc(-c2ccccc2)c1C(=O)N/N=C/c1cc(Cl)cc(Cl)c1O,11.5,56,2.05,> 100,3.19,57.6,3.74,25.1,2.07,> 100,3.44,> 100,2.05,11.3,2.61,7.32,5.61,49.7,6.39,> 100
COc1ccccc1Nc1cc(O)c2c(=O)cc(-c3ccccc3)oc2c1,5.62,34.2,1.65,> 100,3.63,> 100,0.529,> 100,4.49,47.8,4.71,48.2,2.98,13.2,2.79,34.9,4.51,> 100,0.36,2.03
CC1Cc2c(Cl)ncnc2N(C)c2ccc(Cl)cc21 (stereo not given),0.28,0.836,0.331,> 100,0.378,> 100,0.467,> 100,0.422,> 100,0.319,18.2,0.341,> 100,0.403,> 100,0.441,17.1,0.329,1.85
Oc1c(Cl)cc(Cl)c(Cl)c1CNCCNCc1c(O)c(Cl)cc(Cl)c1Cl,3.4,14.1,0.282,11.6,0.556,6.61,0.622,> 50,0.41,7.87,0.997,12.1,1.26,20.3,0.63,2.84,1.51,> 50,1.58,9.87
CCc1nc(N)nc(N)c1-c1ccc(Cl)c([N+](=O)[O-])c1,,90.5,,> 100,,> 100,,> 26.5,,> 100,,> 100,,> 70.4,,> 51.5,,> 83.9,,> 100
